The test system of assay [1] is diamondback moth (Plutella xylostella). The experiment in a line: Insecticidal test against diamondback moth (Test Example 2). The class given is in vivo. To be noted: 168 h, second or third instar larvae, 7th day after release, 26° C. An excerpt: (§1) Each formulation containing an active ingredient was dispersed in water to obtain a dispersion of each active ingredient having a concentration of 10 ppm. Leaves of cabbage were dipped in the respective dispersions for about 10 seconds, and then dried in air. A sheet of moistened filter paper was placed in a Petri dish having a diameter of 9 cm, and the dried leaves of cabbage were put on the filter paper. Larvae of diamondback moth (Plutella xylostella) in second or third instar were released on the leaves, and the Petri dishes were covered and kept in a constant temperature chamber with lightening at a temperature of 26° C. On the 7th day after release, dead insects were counted, and the mortality was calculated by the following equation: […]

The test system of assay [2] is common cutworm (Spodoptera litura). The experiment in a line: Insecticidal test against common cutworm (Test Example 3). It counts as in vivo. The note with it: 168 h, second or third instar larvae, 7th day after release.
Source text: as §1
The tests were conducted in the same manner as in Test Example 2 except that larvae of common cutworm (Spodoptera litura) in second or third instar were used instead of larvae of the diamondback moth in second or third instar, and the concentration of the active ingredient was changed from 10 ppm to 800 ppm or 1 ppm.

As a reminder, the mortality is the share of the test organisms that died.

In the case of `Cc1cc(N(C)C(=O)NC(=O)c2c(F)cccc2F)ccc1Oc1ncc(C(F)(F)F)cc1Cl` [Compound No. 76], the mortality at 10 ppm in assay [1] is 100%.

On to `CN(C(=O)NC(=O)c1ccccc1Br)c1ccc(Oc2ncc(C(F)(F)F)cc2Cl)cc1` [Compound No. 80], for which the mortality at 1 ppm in assay [2] came out at 100%.

In assay [1], `CN(C(=O)NC(=O)c1c(F)cccc1F)c1ccc(Oc2ccc(SC(F)(F)F)cc2)cc1` [compound 39] had a mortality at 10 ppm of 100%.

In the case of `CN(C(=O)NC(=O)c1c(F)cccc1F)c1ccc(Oc2ccc(C(F)(F)F)cc2)cc1` [compound 40], the mortality at 10 ppm in assay [1] is 90%.

In assay [1], `CN(C(=O)NC(=O)c1c(F)cccc1F)c1ccc(Oc2ccc(S(=O)(=O)C(F)(F)F)cc2)cc1` [compound 41] returned a mortality at 10 ppm of 100%.

The compound `CN(C(=O)NC(=O)c1c(F)cccc1F)c1ccc(Oc2ccc([N+](=O)[O-])cc2Cl)cc1` [compound 62] had a mortality at 1 ppm in assay [2] of 100%.

As to `Cc1ccccc1C(=O)NC(=O)N(C)c1ccc(Oc2ccc(C(F)(F)F)cc2Cl)c(F)c1` [compound 63], the mortality at 1 ppm in assay [2] was 100%.

`Cc1cc(N(C)C(=O)NC(=O)c2ccccc2C)ccc1Oc1ccc(C(F)(F)F)cc1Cl` [compound 64]: the mortality at 1 ppm in assay [2] stood at 90%.

For the compound `Cc1cc(N(C)C(=O)NC(=O)c2c(F)cccc2F)cc(C)c1Oc1ccc(C(F)(F)F)cc1Cl` [compound 65], the mortality at 1 ppm in assay [2] stood at 100%.

`Cc1ccccc1C(=O)NC(=O)N(C)c1cc(C)c(Oc2ccc(C(F)(F)F)cc2Cl)c(C)c1` [compound 66] displayed a mortality at 1 ppm in assay [2] of 100%.

As for `CN(C(=O)NC(=O)c1c(F)cccc1F)c1ccc(Oc2ncc(Cl)cc2C(F)(F)F)cc1` [compound 74], the mortality at 1 ppm in assay [2] came to 100%.

In assay [1], `COc1cc(N(C)C(=O)NC(=O)c2c(F)cccc2F)ccc1Oc1ncc(C(F)(F)F)cc1Cl` [compound 75] came in with a mortality at 10 ppm of 90%. This compound had a mortality at 1 ppm in assay [2] of 90%.

`Cc1cc(N(C)C(=O)NC(=O)c2ccccc2Cl)ccc1Oc1ncc(C(F)(F)F)cc1Cl` [compound 77, N-{4-[3-chloro-5-trifluoromethyl-2-pyridyloxy]-3-methylphenyl}-N'-(2-chlorobenzoyl)-N-methylurea]: in assay [1], the mortality at 10 ppm was 100%.

For `CN(C(=O)NC(=O)c1c(F)cccc1F)c1ccc(-c2ccc(C(F)(F)F)cc2)cc1` [compound 108], the mortality at 10 ppm in assay [1] was 100%. In assay [2], this compound displayed a mortality at 1 ppm of 100% and a mortality at 800 ppm of 100%.

`Cc1cc(-c2ccc(Br)cc2)ccc1N(C)C(=O)NC(=O)c1c(F)cccc1F` [compound 109] registered a mortality at 10 ppm in assay [1] of 100%. In assay [2], the mortality at 1 ppm came out at 100% and the mortality at 800 ppm is 100%.

`Cc1ccc(N(C)C(=O)NC(=O)c2c(F)cccc2F)cc1Oc1ccc(C(F)(F)F)cc1Cl` [compound 115] showed a mortality at 1 ppm in assay [2] of 100%.

`CN(C(=O)NC(=O)c1c(F)cccc1F)c1ccc(N(C)c2ncc(C(F)(F)F)cc2Cl)cc1` [compound 125] yielded a mortality at 10 ppm in assay [1] of 100%. In assay [2], the mortality at 1 ppm came out at 100% and the mortality at 800 ppm worked out at 100%.

In assay [1], `CN(C(=O)NC(=O)c1c(F)cccc1F)c1ccc(N(C)c2ccc(C(F)(F)F)cc2Cl)cc1` [compound 126] gave a mortality at 10 ppm of 100%. In assay [2], this compound displayed a mortality at 1 ppm of 100% and a mortality at 800 ppm of 100%.
